Assay [1] addresses T1, MMP-2 (Homo sapiens, UniProt P08253).
T1 sequence (P08253 110-660): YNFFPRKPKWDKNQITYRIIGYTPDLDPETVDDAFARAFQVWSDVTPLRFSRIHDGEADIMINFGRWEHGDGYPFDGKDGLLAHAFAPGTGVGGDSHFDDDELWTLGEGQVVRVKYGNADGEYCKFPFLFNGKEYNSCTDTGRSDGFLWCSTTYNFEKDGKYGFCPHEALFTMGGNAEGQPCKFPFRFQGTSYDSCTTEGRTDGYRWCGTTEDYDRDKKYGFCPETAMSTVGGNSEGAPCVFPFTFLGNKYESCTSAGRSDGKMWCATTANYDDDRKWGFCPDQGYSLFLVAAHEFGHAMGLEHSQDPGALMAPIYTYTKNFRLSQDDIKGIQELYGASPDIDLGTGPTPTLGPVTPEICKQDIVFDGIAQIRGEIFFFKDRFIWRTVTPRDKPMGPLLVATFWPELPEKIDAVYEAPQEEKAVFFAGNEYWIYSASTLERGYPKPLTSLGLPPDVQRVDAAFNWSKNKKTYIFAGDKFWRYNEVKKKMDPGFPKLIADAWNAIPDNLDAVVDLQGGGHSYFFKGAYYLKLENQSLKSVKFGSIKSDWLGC
As to the kind of experiment: MMP-2 enzyme inhibition assay, coumarin-labelled peptide substrate McaPLGLDpaAR. The assay is classed as biochemical. How it is done: (§1) Compounds of the invention were tested to assess their activities as inhibitors of MMP-1, MMP-2, MMP-9, MMP-14 and MMP-12.
(§2) Stock solutions were made up as follows: Assay Butter: 100 mM Tris-HCl pH 7.6 containing 100 mM NaCl, 10 mM CaCl2, and 0.05% Brij 35.
(§3) Substrate: 0.4 mM McaPLGLDpaAR (from Bachem) (0.437 mg/ml) stock solution in 100% DMSO (stored at −20° C.). Dilute to 8 μM in assay butter.
(§4) Test Compounds were prepared initially as 10 mM compound solution in 100% DMSO, diluted to 1 mM in 100% DMSO, then serially diluted 3-fold in 100% DMSO across columns 1-10 of a 96-well microtitre plate Assay concentration range, 100 μM (column 1) to 5.1 nM (column 10).
(§5) The assay was performed in a total volume of 100 μL per well in 96-well microtitre plates. Activated enzyme (20 μL) was added to the wells followed by 20 μL of assay butter. Appropriate concentrations of test compounds dissolved in 10 μL of DMSO were then added followed by 50 μL of McaPLGLDpaAR (8 μM, prepared by dilution of DMSO stock in assay butter). For each as say ten concentrations of test compound were examined in duplicate. Control wells lack either enzyme or test compound. The reactions were incubated at 37° C. for 2 hours. The fluorescence at 405 nm was measured immediately with an SLT Fluostar fluorometer (SLT Labinstruments GmbH, Grödig, Austria) using 320 nm excitation, without stopping the reaction.
(§6) The effect of the test compound was determined from the dose response curve generated by the 10 duplicate concentrations of inhibitor. The IC50 (the concentration of compound required to give a 50% decrease in enzyme activity) was obtained by fitting data to the equation, Y=a+((b−a)/(1+(c/X)^d)). (Y=inhibition achieved for a particular dose; X=the dose in nM; a=minimum y or zero % inhibition; b=maximum y or 100% inhibition; c=is the IC50; d=is the slope). The result was rounded to one significant figure.
Compounds of the invention were tested for inhibitory activity against collagenase (MMP-2) in an assay using a coumarin-labelled peptide substrate, (7-methoxycoumarin-4-yl)acetyl-Pro-Leu-Gly-Leu-(3-[2,4-dinitrophenyl]-L-2,3diaminopropionyl)-Ala-Arg-NH2 (Mca PLGLDpaAR) (Knight et al, 1992, above). The protocol for this assay was as described for the MMP-9 assay above.

The target of assay [2] is Recombinant human 92 kDa gelatinase (MMP-9) (Homo sapiens, UniProt P14780). As to the kind of experiment: MMP-9 enzyme inhibition assay, coumarin-labeled peptide substrate McaPLGLDpaAR. The assay is classed as biochemical. The procedure: as §1
Recombinant human 92 kDa gelatinase (MMP-9), sequence (P14780 107-707 limits assumed): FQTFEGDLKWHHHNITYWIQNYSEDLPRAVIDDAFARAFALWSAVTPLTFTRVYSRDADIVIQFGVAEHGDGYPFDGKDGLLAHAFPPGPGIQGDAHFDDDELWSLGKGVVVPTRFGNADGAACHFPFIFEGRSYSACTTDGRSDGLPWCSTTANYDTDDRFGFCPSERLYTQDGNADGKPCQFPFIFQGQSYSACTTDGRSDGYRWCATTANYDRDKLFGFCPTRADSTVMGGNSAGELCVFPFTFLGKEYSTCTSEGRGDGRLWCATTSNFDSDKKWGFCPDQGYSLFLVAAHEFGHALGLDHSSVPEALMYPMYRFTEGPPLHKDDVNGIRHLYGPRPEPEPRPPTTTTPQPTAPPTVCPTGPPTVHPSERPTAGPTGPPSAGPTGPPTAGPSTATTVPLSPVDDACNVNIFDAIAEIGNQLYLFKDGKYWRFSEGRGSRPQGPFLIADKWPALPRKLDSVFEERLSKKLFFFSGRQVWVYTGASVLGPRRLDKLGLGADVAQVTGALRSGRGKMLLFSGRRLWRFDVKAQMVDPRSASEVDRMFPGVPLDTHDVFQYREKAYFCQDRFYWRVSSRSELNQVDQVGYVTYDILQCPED
Compounds of the invention were tested for inhibitory activity against 92 kDa gelatinase (MMP-9) in an assay using a coumarin-labeled peptide substrate, (7-methoxycoumarin-4-yl)acetyl-Pro-Leu-Gly-Leu-(3-[2,4-dinitrophenyl]-L-2,3diaminopropionyl)-Ala-Arg-NH2 (McaPLGLDpaAR) (Knight et al, FEBS Lett. 1992; 263-266).
as §2, §3
Enzyme: Recombinant human 92 kDa gelatinase (MMP-9; APMA (4-aminophenyl mercuric acetate)-activated if necessary) appropriately diluted in assay butter.
as §4, §5, §6

Assay [3] concerns the target metalloelastase (MMP-12) (Homo sapiens, UniProt P39900). Description: MMP-12 enzyme inhibition assay, coumarin-labelled peptide substrate McaPLGLDpaAR. The format is biochemical. The procedure: as §1, §2, §3, §4, §5, §6
Compounds of the invention were tested for inhibitory activity against metalloelastase (MMP-12) in an assay using a coumarin-labelled peptide substrate, (7-methoxycoumarin-4-yl)acetyl-Pro-Leu-Gly-Leu-(3-[2,4dinitrophenyl]-L-2,3-diaminopropionyl)-Ala-Arg-NH2 (McaPLGLDpaAR) (Knight et al, 1992, above). The protocol for this assay was as described for the MMP-9 assay above.

Assay [4] deals with IL-2-induced peritoneal recruitment of lymphocytes. As to the kind of experiment: IL-2-induced peritoneal recruitment of lymphocytes. The assay is classed as in vivo, C3H/HEN mice. To be noted: 3 mg/kg, subcutaneous, 15 min prior to IL-2; cells collected 24 h after IL-2; mice. The procedure:
Administration of IL-2 intraperitoneally causes migration of lymphocytes into the intraperitoneal cavity. This is a model for the cellular migration that occurs during inflammation.
C3H/HEN mice (Elevage Janvier, France) were intraperitoneally injected with IL-2 (Serono Pharmaceutical Research Institute, 20 μg/kg, in saline).
Compounds of the invention were suspended in 0.5% carboxymethylcellulose (CMC)/0.25% tween-20 and were administered by s.c. or p.o. route (10 ml/kg) 15 min prior to administration of IL-2.
Twenty-four hours after administration of IL-2, peritoneal white blood cells were collected by 3 successive lavages of the peritoneal cavity with 5 ml phosphate buffered saline (PBS)-1 mM EDTA (+4° C.). The suspension was centrifuged (1700 g×10 min at +4° C.). The resulting pellet was suspended in 1 ml PBS-1 mM EDTA.
Lymphocytes were identified and counted using a Beckman/Coulter counter.
The animals were divided into 6 groups (6 mice each group):
Group 1: (baseline) received 0.5% CMC/0.25% tween-20 (vehicle of compound of the invention) and saline (vehicle of IL-2);
Group 2: (control IL-2) received 0.5% CMC/0.25% tween-20 and injection of IL-2;
Group 3: Experimental group (Compound of the invention Dose 1) received a compound of the invention and injection of IL-2; […]
Inhibition of lymphocyte recruitment was calculated as follows: […]

Usually IC50 stands for the point on the concentration scale where inhibition reaches its midpoint.

metalloelastase (MMP-12), sequence (P39900 106-470): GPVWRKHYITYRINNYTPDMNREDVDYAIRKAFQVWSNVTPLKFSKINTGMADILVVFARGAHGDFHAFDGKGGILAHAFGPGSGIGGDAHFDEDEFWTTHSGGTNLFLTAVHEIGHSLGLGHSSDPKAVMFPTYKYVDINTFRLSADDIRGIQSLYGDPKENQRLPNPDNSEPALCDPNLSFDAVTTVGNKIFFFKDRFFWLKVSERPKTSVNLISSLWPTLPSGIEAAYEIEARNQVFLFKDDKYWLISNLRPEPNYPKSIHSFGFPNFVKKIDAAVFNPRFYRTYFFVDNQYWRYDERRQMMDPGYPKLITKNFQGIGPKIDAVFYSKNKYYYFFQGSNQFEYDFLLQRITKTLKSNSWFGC

As to `COc1ccc(S(=O)(=O)N2[C@H](C(=O)NO)C[C@@H]3CCN(C(=O)c4ccccc4)C[C@@H]32)cc1` (relative stereo) [Example 1, rel-(2S,3aS,7aR)-6-benzoyl-N-hydroxy-1-[(4-methoxyphenyl)sulfonyl]octahydro-1H-pyrrolo[2,3-c]pyridine-2-carboxamide], the IC50 worked out at 2100 nM in assay [1], 1700 nM in assay [2] and 1100 nM in assay [3].

Turning to `COc1ccc(S(=O)(=O)N2[C@H](C(=O)NO)C[C@@H]3CCN(C(C)=O)C[C@@H]32)cc1` (relative stereo) [Example 2, rel-(2S,3aS,7aR)-6-acetyl-N-hydroxy-1-[(4-methoxyphenyl)sulfonyl]octahydro-1H-pyrrolo[2,3-c]pyridine-2-carboxamide], the IC50 was found to be 95 nM in assay [1], 150 nM in assay [2] and 130 nM in assay [3].

For the compound `COc1ccc(S(=O)(=O)N2[C@H](C(=O)NO)C[C@@H]3CCN(C(=O)CCC4CCCC4)C[C@@H]32)cc1` (relative stereo) [Example 4, rel-2S,3aS,7aR)-6-(3-cyclopentylpropanoyl)-N-hydroxy-1-[(4-methoxyphenyl)sulfonyl]octahydro-1H-pyrrolo[2,3-c]pyridine-2-carboxamide], the IC50 in assay [1] was found to be 640 nM; in assay [2], 780 nM; in assay [3], 640 nM.

`COCCOC(=O)N1CC[C@H]2C[C@@H](C(=O)NO)N(S(=O)(=O)c3ccc(OC)cc3)[C@H]2C1` (relative stereo) [Example 5, 2-methoxyethyl rel-(2S,3aS,7aR)-2-[(hydroxyamino)carbonyl]-1-[(4-methoxyphenyl)sulfonyl]octahydro-6H-pyrrolo[2,3-c]pyridine-6-carboxylate]: the IC50 worked out at 850 nM in assay [1], 1500 nM in assay [2] and 980 nM in assay [3].

As for `COc1ccc(S(=O)(=O)N2[C@H](C(=O)NO)C[C@@H]3CCN(C(=O)C4CCCC4)C[C@@H]32)cc1` (relative stereo) [Example 7, rel-2S,3aS,7aR)-6-cyclopentylcarbonyl)-N-hydroxy-1-[(4-methoxyphenyl)sulfonyl]octahydro-1H-pyrrolo[2,3-c]pyridine-2-carboxamide], the IC50 in assay [1] turned out to be 790 nM; in assay [2], 1100 nM; in assay [3], 610 nM.

With `COc1ccc(S(=O)(=O)N2[C@H](C(=O)NO)C[C@@H]3CCN(C(=O)CCc4ccccc4)C[C@@H]32)cc1` (relative stereo) [Example 8, rel-(2S,3aS,7aR)—N-hydroxy-1-[(4-methoxyphenyl)sulfonyl]-6-(3-phenylpropanoyl)octahydro-1H-pyrrolo[2,3-c]pyridine-2-carboxamide], the IC50 in assay [1] came to 50 nM; in assay [2] it was 41 nM; in assay [3], 50 nM. In addition, in assay [4], the “% inhibition of IL-2-induced peritoneal recruitment of lymphocytes” value worked out at 33%.

As to `COc1ccc(S(=O)(=O)N2CC[C@H]3C[C@@H](C(=O)NO)N(S(=O)(=O)c4ccc(OC)cc4)[C@H]3C2)cc1` (relative stereo) [Example 10, rel-(2S,3aS,7aR)—N-hydroxy-1,6-bis[(4-methoxyphenyl)sulfonyl]octahydro-1H-pyrrolo[2,3-c]pyridine-2-carboxamide], the IC50 in assay [1] came to 1600 nM; in assay [2], 1800 nM; in assay [3], 950 nM.

For `COc1ccc(S(=O)(=O)N2[C@H](C(=O)NO)C[C@@H]3CCN(C(=O)c4ccc(-c5ccccc5)cc4)C[C@@H]32)cc1` (relative stereo) [Example 12, rel-(2S,3aS,7aR)-6-(biphenyl-4-ylcarbonyl)-N-hydroxy-1-[(4-methoxyphenyl)sulfonyl]octahydro-1H-pyrrolo[2,3-c]pyridine-2-carboxamide], the figures for the IC50 in assay [1], in assay [2] and in assay [3] were 1700 nM, 1600 nM and 1200 nM, respectively.

Turning to `CCN(CC)C(=O)CN1CC[C@H]2C[C@@H](C(=O)NO)N(S(=O)(=O)c3ccc(OC)cc3)[C@H]2C1` (relative stereo) [Example 14, rel-(2S,3aS,7aR)-6-[2-(diethylamino)-2-oxoethyl]-N-hydroxy-1-[(4-methoxyphenyl)sulfonyl]octahydro-1H-pyrrolo[2,3-c]pyridine-2-carboxamide], the IC50 in assay [1] was determined as 1200 nM; in assay [2], 1500 nM; in assay [3] it was 930 nM.

Consider `COc1ccc(S(=O)(=O)N2[C@H](C(=O)NO)C[C@@H]3CCN(C(=O)Nc4ccccc4)C[C@@H]32)cc1` (relative stereo) [Example 16, rel-(2S,3aS,7aR)—N^2-hydroxy-1-[(4-methoxyphenyl)sulfonyl]-N^6-phenyloctahydro-6H-pyrrolo[2,3-c]pyridine-2,6-dicarboxamide], for which the IC50 in assay [1] was found to be 320 nM; in assay [2] it was 430 nM; in assay [3], 340 nM.

Consider `COc1ccc(S(=O)(=O)N2[C@H](C(=O)NO)C[C@@H]3CCN(C(=O)OCc4ccccc4)C[C@@H]32)cc1` (relative stereo) [Example 18, benzyl rel-(2S,3aS,7aR)-2-[(hydroxyamino)carbonyl]-1-[(4-methoxyphenyl)sulfonyl]octahydro-6H-pyrrolo[2,3-c]pyridine-6-carboxylate], for which the results for the IC50 in assay [1], in assay [2] and in assay [3] were 490 nM, 680 nM and 400 nM, respectively.

For the origin of these results see US7932389B2, “Octahydropyrrolo[2,3C]pyridine derivatives and pharmaceutical use thereof” (Merck Serono S.A., priority 2004, dated 2011).
